Test results taken from patent publication US12070501B1, “Topical ophthalmological compositions” (ADS Therapeutics LLC, priority 2021, dated 2024).

Columns and labels:
[1] = system: New Zealand White rabbits
[2] = water-based formulation at neutral pH; cited from earlier work
[3] = Miscibility of semi-fluorinated alkane F6H8 with MCT or light liquid paraffin oil; type: physicochemical
Description: F6H8, a semi-fluorinated alkane was tested for miscibility with MCT with the ratio of F6H8 to MCT from 1:99 to 99:1. […] F6H8, a semi-fluorinated alkane was tested for miscibility with light liquid paraffin oil with the ratio of F6H8 to light liquid paraffin oil from 1:99 to 99:1.

Row | SMILES | Magnitude of pupil size changes versus atropine sulfate in aqueous solution ([1]; atropine in F6H8-based formulation, at comparable doses) | Dose response in pupil size dilation ([1]; from 0.01% to 0.05% atropine, Day 7 and Day 22) | Pupil size dilation ([1]; topical ocular instillation twice daily, 40 μL to left eye, Day 7 and Day 22, CBT-009 at 0.01%, […] and 0.05% in […] phenylethyl alcohol, 10% MCT, 89.75% F6H8, comparator 0.03%) | Shelf life of the product [2] | Miscibility with MCT ([3]; ratio of F6H8 to MCT from 1:99 to 99:1) | Miscibility with light liquid paraffin oil ([3]; ratio of F6H8 to light liquid paraffin oil from 1:99 to 99:1)
1 | CN1[C@@H]2CC[C@H]1C[C@@H](OC(=O)C(CO)c1ccccc1)C2 (stereo partly drawn) [Atropine, atropine] | comparable | dose response in pupil size dilation was observed | pupil size dilation was observed | less than 1 year |  | 
2 | CCCCCCCCC(F)(F)C(F)(F)C(F)(F)C(F)(F)C(F)(F)C(F)(F)F [F6H8, perfluorohexyloctane] |  |  |  |  | miscible with MCT at all ratios | miscible with light liquid paraffin oil at all ratios
